From patent US6855730B2, “3-methylidenyl-2-indolinone modulators of protein kinase” (Sugen, Inc., priority 1998, dated 2005)

What was measured:
pyk2 = pyk2 (Homo sapiens, UniProt Q14289); assay: bio pyk2 assay; format: biochemical
[1] = target: T1, 3T3 cell line genetically engineered to express human PDGF-R (Homo sapiens, UniProt P09619); assay: PDGF-induced BrdU incorporation assay; format: cell-based
T1 construct: expressed in transfected cells; host or cells: 3T3
Protocol: The general procedure is as follows: a compound is introduced to cells expressing the test kinase, either naturally or recombinantly, for a selected period of time after which, if the test kinase is a receptor, a ligand known to activate the receptor is added. […] The cellular/biologic assays described herein measure the amount of DNA made in response to activation of a test kinase, which is a general measure of a proliferative response. The general procedure for this assay is as follows: a compound is introduced to cells expressing the test kinase, either naturally or recombinantly, for a selected period of time after which, if the test kinase is a receptor, a ligand known to activate the receptor is added. After incubation at least overnight, a DNA labeling reagent such as Bromodeoxyuridine (BrdU) or 3H-thymidine is added. The amount of labeled DNA is detected with either an anti-BrdU antibody or by measuring radioactivity and is compared to control cells not contacted with a test compound.
PDGF-Induced BrdU Incorporation Assay
Protocol • (1) Cells are seeded at 8000 cells/well in DMEM, 10% CS, 2mM Gln in a 96 well plate. […] The negative control wells receive serum free DMEM with 0.1% BSA only, the positive control cells receive the ligand (PDGF) but no test compound. […] FixDenat solution is added (50 μ/well) and the plates are incubated at room temperature for 45 minutes on a plate shaker. • (6) The FixDenat solution is thoroughly removed by decanting and tapping the inverted plate on a paper towel. Milk is added (5% dehydrated milk in PBS, 200 μ/well) as a blocking solution and the plate is incubated for 30 minutes at room temperature on a plate shaker. • (7) The blocking solution is removed by decanting and the wells are washed once with PBS. Anti-BrdU-POD solution (1:100 dilution in PBS, 1% BSA) is added (100 μl/well) and the plate is incubated for 90 minutes at room temperature on a plate shaker. • (8) The antibody conjugate is thoroughly removed by decanting and rinsing the wells 5 times with PBS, and the plate is dried by inverting and tapping on a paper towel. • (9) TMB substrate solution is added (100 μl/well) and incubated for 20 minutes at room temperature on a plate shaker until color development is sufficient for photometric detection. • (10) The absorbance of the samples are measured at 410 nm (in “dual wavelength” mode with a filter reading at 490 nm, as a reference wavelength) on a Dynatech ELISA plate reader.

EGFR = EGFR (Homo sapiens, UniProt P00533); assay: Biochemical EGFR assay (ELISA, A431 cell lysate); parameters: A431 cell lysate (Screening Lab, SUGEN, Inc.); host or cells: A431; conditions: read-out: bio EGFr IC50
EGFR, sequence (P00533 25-1210): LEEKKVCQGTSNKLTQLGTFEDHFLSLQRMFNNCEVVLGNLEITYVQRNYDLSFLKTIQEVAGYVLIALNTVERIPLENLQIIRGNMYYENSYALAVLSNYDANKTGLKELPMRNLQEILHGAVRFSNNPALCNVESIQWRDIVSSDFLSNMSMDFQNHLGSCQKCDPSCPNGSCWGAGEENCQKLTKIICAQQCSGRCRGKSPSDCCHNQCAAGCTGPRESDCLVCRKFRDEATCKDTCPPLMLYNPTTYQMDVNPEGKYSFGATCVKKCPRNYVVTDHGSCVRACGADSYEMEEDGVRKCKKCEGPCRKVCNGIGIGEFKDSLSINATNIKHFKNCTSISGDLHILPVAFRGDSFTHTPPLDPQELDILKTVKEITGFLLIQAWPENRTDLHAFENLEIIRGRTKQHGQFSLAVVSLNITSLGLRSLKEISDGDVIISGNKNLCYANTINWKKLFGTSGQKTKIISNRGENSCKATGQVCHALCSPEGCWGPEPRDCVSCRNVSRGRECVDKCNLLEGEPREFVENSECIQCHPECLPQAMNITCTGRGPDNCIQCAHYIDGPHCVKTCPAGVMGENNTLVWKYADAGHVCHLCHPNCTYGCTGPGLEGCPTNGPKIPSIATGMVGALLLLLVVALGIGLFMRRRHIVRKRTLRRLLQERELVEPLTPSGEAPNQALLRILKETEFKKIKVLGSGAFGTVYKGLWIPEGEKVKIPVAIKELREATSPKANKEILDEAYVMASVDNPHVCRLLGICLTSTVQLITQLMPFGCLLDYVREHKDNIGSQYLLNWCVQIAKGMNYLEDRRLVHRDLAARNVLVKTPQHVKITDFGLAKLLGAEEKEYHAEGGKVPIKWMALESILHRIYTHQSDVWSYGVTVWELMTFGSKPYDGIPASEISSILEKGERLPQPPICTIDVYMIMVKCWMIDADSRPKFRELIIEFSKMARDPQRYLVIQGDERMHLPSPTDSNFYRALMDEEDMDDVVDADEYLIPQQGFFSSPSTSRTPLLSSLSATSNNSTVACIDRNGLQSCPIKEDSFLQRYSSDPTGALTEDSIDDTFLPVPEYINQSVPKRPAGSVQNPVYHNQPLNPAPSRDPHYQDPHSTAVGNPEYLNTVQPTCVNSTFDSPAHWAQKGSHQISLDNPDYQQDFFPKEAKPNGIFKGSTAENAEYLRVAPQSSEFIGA
Outline: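 EGFR captured from A431 cell lysate onto anti-EGFR-coated plates, then incubated with test compound for 30 min at room temperature. Tyrosine phosphorylation with ATP/MnCl2 was stopped with EDTA after 5 min and detected by anti-phosphotyrosine ELISA with peroxidase/ABTS read-out.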

flkGST = target: T2, flkGST (Homo sapiens, UniProt P35968); assay: bio flkGST assay; format: biochemical
T2 construct: GST
T2 sequence (P35968 786-1356 limits assumed): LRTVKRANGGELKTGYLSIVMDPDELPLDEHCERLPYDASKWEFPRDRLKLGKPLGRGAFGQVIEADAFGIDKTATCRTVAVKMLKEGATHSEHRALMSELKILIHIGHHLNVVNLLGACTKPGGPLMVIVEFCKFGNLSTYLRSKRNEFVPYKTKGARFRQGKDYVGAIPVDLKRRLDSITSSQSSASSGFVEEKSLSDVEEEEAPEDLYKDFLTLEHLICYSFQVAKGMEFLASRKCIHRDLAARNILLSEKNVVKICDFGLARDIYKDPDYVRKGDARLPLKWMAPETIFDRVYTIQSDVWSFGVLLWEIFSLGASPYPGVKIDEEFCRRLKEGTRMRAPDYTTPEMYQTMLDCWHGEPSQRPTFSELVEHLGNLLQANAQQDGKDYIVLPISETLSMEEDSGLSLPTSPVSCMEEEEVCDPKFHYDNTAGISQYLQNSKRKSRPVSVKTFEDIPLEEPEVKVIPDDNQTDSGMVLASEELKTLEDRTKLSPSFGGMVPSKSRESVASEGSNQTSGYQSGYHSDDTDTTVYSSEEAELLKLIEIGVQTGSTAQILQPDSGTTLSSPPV

[2] = target: Myc-GyrB-FGFR fusion protein (Homo sapiens, UniProt P11362); assay: Biochemical FGFR assay (ELISA); conditions: bio fgfR1 IC50
Myc-GyrB-FGFR fusion protein, sequence (P11362 478-767 limits assumed): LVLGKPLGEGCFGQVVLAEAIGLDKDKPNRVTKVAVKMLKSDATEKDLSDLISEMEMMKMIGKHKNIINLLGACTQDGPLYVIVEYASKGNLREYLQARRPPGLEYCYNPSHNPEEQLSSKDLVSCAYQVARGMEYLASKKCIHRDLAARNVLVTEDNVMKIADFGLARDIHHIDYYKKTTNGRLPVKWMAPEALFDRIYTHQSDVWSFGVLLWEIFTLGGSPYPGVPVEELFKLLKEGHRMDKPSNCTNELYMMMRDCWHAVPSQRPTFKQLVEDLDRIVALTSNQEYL

src protein kinase = target: T3, src protein kinase (Gallus gallus, UniProt P00523); assay: Biochemical SRC assay (phosphorylation of biotinylated peptide); conditions: read-out: bio src IC50
T3 construct: host or cells: Schizosaccharomyces pombe SP200
Protocol: This assay is used to determine src protein kinase activity measuring phosphorylation of a biotinylated peptide as the readout.
Yeast transformed with src (Sugen, Inc., Redwood City, Calif.). • b. Cell lysates: Yeast cells expressing src are pelleted, washed once with water, re-pelleted and stored at −80° C. until use. • c. N-terminus biotinylated [sequence] is prepared by standard procedures well known to those skilled in the art. • d. DMSO: Sigma, St. Louis, Mo. • e. […] Vecastain ELITE ABC reagent: Vector, Burlingame, Calif. • h. […] S. Pombe strain SP200 (h-s leul.32 ura4 ade210) is grown as described and transformations are pRSP expression plasmids are done by the lithium acetate method (Superti-Furga, supra). Cells are grown in the presence of 1 μM thiamine to repress expression from the nmtl promoter or in the absence of thiamine to induce expression. • i. […] Turbo TMB-ELISA peroxidase substrate: Pierce Chemical.
Buffer Solutions • a. PBS (Dulbecco's Phosphate-Buffered Saline): GIBCO PBS, GIBCO Cat. #450-1300EB. • b. Blocking Buffer: 5% Non-fat milk (Carnation) in PBS. • c. Carbonate Buffer: Na2CO4 from Fischer, Cat. # S495, make up 100 mM stock solution. • d. Kinase Buffer: 1.0 ml (from 1M stock solution) MgCl2, 0.2 ml (from a 1M stock solution) MnCl2, 0.2 ml (from a 1M stock solution) DTT, 5.0 ml (from a 1M stock solution) HEPES, 0.1 ml TX-100, bring to 10 ml total volume with MilliQ H2O. • e. […] NaCl: Fischer Cat. # S271-10, Make up 5M stock solution with MilliQ H2O. • i. […] MgCl2: Fischer Cat. # M33-500, make up 1M stock solution with MilliQ H2O. • k. […] MnCl2: Fischer Cat. # M87-100, make up 1M stock solution with MilliQ H2O. • n. DTT: -Fischer Cat. # BP172-5. • o. […] Kinase Reaction Mixture: Amount per assay plate (100 wells): 1.0 ml Kinase Buffer, 200 λg GST-ζ, bring to final volume of 8.0 ml with MilliQ H2O. • q. […] Then add 1 drop of reagent B. Put tube on orbital shaker at room temperature and mix for 30 minutes.
Preparation of src Coated ELISA Plate. • 1. Coat ELISA plate with 0.5 μg/well anti-src mab in 100 μl of pH 9.6 sodium carbonate buffer, hold at 40° C. overnight. • 2. Wash wells once with PBS. • 3. […] Wash plate 5× with PBS. • 5. Add 10 μg/well of src transformed yeast lysates diluted in Lysis Buffer (0.1 ml total volume per well). (Amount of lysate may vary between batches.) Shake plate for 20 minutes at room temperature.
Preparation of Phosphotyrosine Antibody-coated ELISA Plate. • 1. 4G10 plate: coat 0.5 μg/well 4G10 in 100 μl PBS overnight at 4° C. and block with 150 μl of 5% milk in PBS for 30 minutes at room temperature.
Kinase Assay Procedure. • 1. Remove unbound proteins from plates and wash plates 5× with PBS. • 2. […] Wash plate 5× with TBST. • 10. Incubate with Vectastain ELITE ABC reagent (100 μl/well) for 30 min. at room temperature. • 11. Wash the wells 5× with TBST. • 12. Develop with Turbo TMB.

pyk2, sequence (Q14289 whole entry, species assumed): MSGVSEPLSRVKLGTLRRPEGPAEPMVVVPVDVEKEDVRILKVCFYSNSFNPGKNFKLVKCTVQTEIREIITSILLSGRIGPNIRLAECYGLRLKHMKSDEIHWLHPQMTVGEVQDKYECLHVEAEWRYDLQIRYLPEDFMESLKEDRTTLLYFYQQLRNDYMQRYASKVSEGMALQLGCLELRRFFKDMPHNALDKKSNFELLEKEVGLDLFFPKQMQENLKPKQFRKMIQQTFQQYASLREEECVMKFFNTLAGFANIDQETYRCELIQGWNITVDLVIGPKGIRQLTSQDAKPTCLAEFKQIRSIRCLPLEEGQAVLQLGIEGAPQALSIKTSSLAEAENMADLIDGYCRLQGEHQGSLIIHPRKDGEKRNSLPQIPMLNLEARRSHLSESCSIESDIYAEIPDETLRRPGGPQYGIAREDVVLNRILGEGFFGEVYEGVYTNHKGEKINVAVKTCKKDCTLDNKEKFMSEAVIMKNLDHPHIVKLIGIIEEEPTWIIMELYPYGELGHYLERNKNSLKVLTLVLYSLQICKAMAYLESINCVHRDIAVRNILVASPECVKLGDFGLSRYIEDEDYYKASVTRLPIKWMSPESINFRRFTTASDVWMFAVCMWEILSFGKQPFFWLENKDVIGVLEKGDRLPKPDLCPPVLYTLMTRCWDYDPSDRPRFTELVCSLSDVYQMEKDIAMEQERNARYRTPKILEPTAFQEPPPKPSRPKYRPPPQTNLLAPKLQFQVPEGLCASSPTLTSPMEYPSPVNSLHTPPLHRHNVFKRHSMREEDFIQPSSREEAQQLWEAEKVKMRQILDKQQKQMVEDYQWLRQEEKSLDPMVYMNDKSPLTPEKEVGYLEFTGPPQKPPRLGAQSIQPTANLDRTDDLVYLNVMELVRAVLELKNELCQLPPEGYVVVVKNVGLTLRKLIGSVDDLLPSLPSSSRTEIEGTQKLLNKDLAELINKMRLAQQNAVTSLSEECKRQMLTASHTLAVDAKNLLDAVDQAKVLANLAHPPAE

Cc1c[nH]c(/C=C2\C(=O)Nc3ccccc32)c1CCC(=O)O [Example 215, 3-[4-Methyl-2-(2-oxo-1,2-dihydroindol-3-ylidenemethyl)-1H-pyrrol-3-yl]-propionic acid]
IC50 (pyk2): 6.9 µM
IC50 [1]: 20 µM
IC50 (EGFR): > 100 µM
IC50 (flkGST): 0.08 µM
IC50 [2]: 0.07 µM
IC50 (src protein kinase): 5.59 µM
